In patent publication US9365499B2, “9-aminomethyl substituted tetracycline compounds” (KBP Biosciences Co., Ltd., priority 2011, dated 2016):
In brackets after ≈: the same amount, converted by molar mass.

Assays:
Streptococcus pyogenes = experiment: antibacterial activity in vitro, agar dilution method; format: cell-based; conditions: Table 2
From the text: (§1) The antibacterial spectrum and in vitro antibacterial activity of the compound of the present invention
(§2) Experimental method: the agar dilution method, with reference to Clinical And Laboratory Standards Institute. Methods for Dilution Antimicrobial Susceptibility Tests for Bacteria That Grow Aerobically; Approved Standard-Seventh Edition. CLSI Document M7-A7. Vol 26, no. 2, Wayne, Pa.: Clinical and Laboratory Standards Institute, 2006.
(§3) Wherein MIC represents the minimum inhibitory concentration, MIC90 represents the 90% inhibitory concentration.

Acinetobacter baumannii = experiment: as above; format: cell-based; conditions: Table 2, agar dilution, read-out: antibacterial activity MIC, Acinetbacter baumannii
From the text: as §1, §2, §3

[1] = tested on: Methicillin-resistant Staphycoccus epidermidis (MRSE); experiment: as above; format: cell-based; conditions: Staphylococcus epidermidis, Table 2
From the text: as §1, §2, §3

Escherichia coli = experiment: as above; format: cell-based; conditions: Table 2
From the text: as §1, §2, §3

[2] = tested on: Methicillin-resistant Staphylococcus aureus (MRSA); experiment: as above; format: cell-based; conditions: Table 2, agar dilution
From the text: as §1, §2, §3

Klebsiella pneumoniae = experiment: as above; format: cell-based; conditions: Table 2
From the text: as §1, §2, §3

[3] = in vivo pharmacokinetics experiment in rats (Test Example 2); conditions: male, SD, rat, plasma
Experimental: Test animals: male SD rats, weighing 230-250 g, purchased from Shanghai SLAC Laboratory Animals Co., Ltd., Certificate of Conformity: SCXK (SH) 2007-0005 22045; Six rats were tested for each compound.
Test substances: Compound 2 of the present invention, prepared in accordance with the method of Example 3; dissolved in physiological saline.
Internal standard substance: The acetonitrile solution of 50 ng/ml KBP-5747 was used as an internal standard solution in the measurement of Compound 2.
Administration of Compound 2 of the present invention: intravenous bolus injection (iv), dose: 5 mg/kg, administrating volume: 5 mL/kg; gavage (po), dose: 5 mg/kg, administrating volume: 5 mL/kg. Prior to administration help but water fasting for 12 hours, 4 hours after administration to food.
iv blood sampling time point: denoted by 0 min before administration, 5 min, 15 min, 30 min, 1 h, 2 h, 4 h, 8 h, 24 h, 30 h, 48 h after administration
po blood sampling time point: denoted by 0 min before administration, 5 min, 15 min, 30 min, 1 h, 2 h, 4 h, 8 h, 24 h, 30 h, 48 h after administration
Each time point to take around 150 μl whole blood, centrifugated at 2000×g at 4° C. for 5 minutes in a low-temperature high-speed centrifuge to separate plasma, the resulting plasma frozen was at −70° C. in a refrigerator.
Plasma samples analysis: 30 μl of plasma was taken and added 100 μl of internal standard solution, subjected to vortex at 14,000 rev/min for 5 minutes, then to centrifugation at 12,000 rpm/min for 5 minutes. The supernatant was taken and analyzed using LC-MS/MS.
Formula Absolute Bioavailability F%=[AUC]INF (po)×Dose(iv)/[AUC]INF (iv)×Dose(po)

Row | Structure (SMILES) | MIC (Streptococcus pyogenes) [µg/mL] | MIC (Acinetobacter baumannii) [µg/mL] | MIC [1] [µg/mL] | MIC (Escherichia coli) [µg/mL] | MIC [2] [µg/mL] | MIC (Klebsiella pneumoniae) [µg/mL] | AUC(0-inf) ([3]; iv, 5 mg/kg) [ng·h/mL] | clearance ([3]; iv, 5 mg/kg) [mL/min/kg] | half-life ([3]; iv, 5 mg/kg) [h] | Vd ([3]; iv, 5 mg/kg, read-out: Vss) [L/kg] | bioavailability ([3]; po 5 mg/kg vs iv 5 mg/kg, read-out: F % (absolute bioavailability)) [%] | AUC(0-inf) ([3]; po (gavage), 5 mg/kg) [ng·h/mL] | Cmax ([3]; po (gavage), 5 mg/kg) [ng/mL] | Tmax ([3]; po (gavage), 5 mg/kg) [h] | half-life ([3]; po (gavage), 5 mg/kg) [h]
1 | CN(C)c1cc(CNC2CC(F)(F)C2)c(O)c2c1C[C@H]1C[C@H]3[C@H](N(C)C)C(O)=C(C(N)=O)C(=O)[C@@]3(O)C(O)=C1C2=O [Compound 2, (4S,4aS,5aR,12aS)-9-((3,3-difluorocyclobutylamino)methyl)-4,7-bis(dimethylamino)-3,10,12,12a-tetrahydroxy-1,1′-dioxo-1,4,4a,5,5a,6,11,12a-octahydrotetracene-2-carboxamide] | 0.125 (≈ 0.217 µM) | 0.5 (≈ 0.867 µM) | 0.25 (≈ 0.434 µM) | 1 (≈ 1.73 µM) | 0.5 (≈ 0.867 µM) | 4 (≈ 6.94 µM) | 2290 | 37.2 | 4.07 | 5.12 | 33.9 | 777 | 251 | 1 | 2.32
2 | CN(C)c1cc(CNCC2CC(F)(F)C2)c(O)c2c1C[C@H]1C[C@H]3[C@H](N(C)C)C(O)=C(C(N)=O)C(=O)[C@@]3(O)C(O)=C1C2=O [Compound 10, (4S,4aS,5aR,12aS)-9-(((3,3-difluorocyclobutyl)methylamino)methyl)-4,7-bis(dimethylamino)-3,10,12,12a-tetrahydroxy-1,11-dioxo-1,4,4a,5,5a,6,11,12a-octahydrotetracene-2-carboxamide] | 0.125 (≈ 0.212 µM) | 4 (≈ 6.77 µM) | 0.5 (≈ 0.847 µM) | 1 (≈ 1.69 µM) | 1 (≈ 1.69 µM) | 2 (≈ 3.39 µM) |  |  |  |  |  |  |  |  | 
